From patent US20220031712A1, “PREPARATION OF A PHARMACEUTICAL COMPOSITION OF OLODATEROL AND BUDESONIDE” (priority 2020, published 2022)
Counter-ions that a name gives are not always drawn.

Experiment: Thermal stability of Samples 1-4 at 60° C. (HPLC content and impurity detection)
Type: physicochemical
Procedure: The thermal stability of samples 1˜4 of example 1 at 60° C. is provided below:
Impurity detection method: • Mobile phase A: accurately weigh 3.17 g of sodium dihydrogen phosphate, add 1 L of pure water to dissolve, adjust the pH of the solution to 3.20 with phosphoric acid. Mobile Phase B: Acetonitrile. • Instrument ID: HPLC. • Column ID: YMC-Triart C18 250*4.6 5 μm. • Detection wavelength: 230 nm. • Flow rate: 1.0 mL/min. • Running time: 35 min.

stability of BD in the formulation (at pH 4.0 and 4.5, pH adjusted with citric acid)	stability of OH in the formulation (at pH 5.5 and pH 4.0, pH adjusted with citric acid)	Structure (SMILES)
relatively stable		CCCC1O[C@@H]2C[C@H]3[C@@H]4CCC5=CC(=O)C=C[C@]5(C)[C@H]4[C@@H](O)C[C@]3(C)[C@]2(C(=O)CO)O1 (stereo partly drawn) [BD, 11β,21-dihydroxy-16α,17α-(butylidenebis(oxy))pregna-1,4-diene-3,20-dione]
	relatively stable	COc1ccc(CC(C)(C)NC[C@H](O)c2cc(O)cc3c2OCC(=O)N3)cc1 [OH, Olodaterol hydrochloride]
